Literature values in patent publication US20240350374A1, “COMPOSITION AND METHODS OF TREATMENT USING TRANSDERMAL SUPPLEMENTATION” (Xygenyx Inc., priority 2023, published 2024).
Where a SMILES comes first, the peptide text is derived from it.

Legend:
skin [1] = conditions: as penetration enhancer
[2] = system: wide dynamic range neurons in the ventroposterolateral nucleus of the thalamus; conditions: believed
skin [3] = conditions: topical application, concentrations 0.5-5%
skin [4] = conditions: topical formulations, within four weeks of treatment
[5] = compared to α-tocopherol = 1.0
F2-isoprostane = conditions: large doses of 1600-3200 IU/day
rheumatoid arthritis = conditions: arthritic subjects
[6] = even when dietary intake occurs in equal portions
markers of inflammation = conditions: supplementation, individuals with metabolic syndrome
[7] = in vivo

## CC(C)[C@@H]1CC[C@@H](C)C[C@H]1O [Menthol]
Skin [1]
  factor of increase of transdermal drug uptake / penetration: ≥ 10

## CCCCCc1cc(O)c2c(c1)OC(C)(C)C1CCC(C)=CC21 (stereo not shown) [THC, Δ-9-tetrahydrocannabinol]
[2]
  power in mediating pain relative to morphine: ten times more powerful than morphine

## C=CCCCCCCCCC(=O)N[C@@H](Cc1ccccc1)C(=O)O [UP, Undecylenoyl phenylalanine]
Skin [3]
  time to skin lightening effects: ≥ 7 days

## CC12CCC(CC1)C(C)(C)O2 [eucalyptol, 1,8-epoxy-p-menthane]
Skin [1]
  factor of increase of transdermal drug uptake / penetration: more than 10

## CC[C@H](C)[C@H](NC(=O)[C@H](CC(=O)O)NC(=O)[C@@H](N)CCCCN)C(=O)N[C@@H](CCCNC(N)=O)C(N)=O [tripeptide-10 citrulline, Tripeptide-10 citrulline] (HELM PEPTIDE1{K.D.I.[Cit].[am]}$$$$V2.0)
Skin [4]
  improvement of suppleness: ≤ 54%

## Cc1c(C)c2c(c(C)c1O)CC[C@@](C)(CCC[C@H](C)CCC[C@H](C)CCCC(C)C)O2 [α-tocopherol]
Dietary supplementation, doses up to 400 IU/day
  reduction of risk of coronary disease: up to 34%
Dietary supplementation, doses up to 400 IU/day, controlled trials
  reduction of risk of developing neurodegenerative diseases (Alzheimer's Syndrome or dementia): ≤ 24%
In combination with 10-20 mg β-carotene and 400-500 mg vitamin C, doses around 400-500 IU
  reduction in the development of age-related cataracts: 23%
[5]
  relative biological activity: 1.0
F2-isoprostane
  blood plasma concentration of F2-isoprostane: significantly lower

## C=C1CC/C=C(\C)CC[C@@H]2[C@@H]1CC2(C)C [β-caryophyllene]
Rheumatoid arthritis
  increases of protein carbonyl groups and myeloperoxidase activity in liver and plasma: eliminated
  number of circulating and articular leukocytes: reduced
  swelling of joints and lymph nodes: reduced

## Cc1cc(O)c(C)c2c1O[C@](C)(CCC[C@H](C)CCC[C@H](C)CCCC(C)C)CC2 [β-tocopherol]
[5]
  relative biological activity: 0.5

## Cc1c(O)cc2c(c1C)O[C@](C)(CCC[C@H](C)CCC[C@H](C)CCCC(C)C)CC2 [γ-tocopherol]
[5]
  relative biological activity: 0.1
[6]
  concentration in vivo relative to α-tocopherol: roughly 10%

## Cc1cc(O)cc2c1O[C@](C)(CCC[C@H](C)CCC[C@H](C)CCCC(C)C)CC2 [δ-tocopherol]
[5]
  relative biological activity: 0.03
Markers of inflammation
  markers of inflammation in the blood: reduced

## HGH: hormone comprising a peptide chain that is synthesized in the pituitary gland
[7]
  biological half-life: 10-20 minutes
